Consider one compound from patent publication US7598286B2, “[(1H-indazol-3-yl)methyl]phenols and (hydroxyphenyl)(1H-indazol-3-yl)methanones” (Wyeth, priority 2004, dated 2009).

Test [1] relates to creatine kinase expression in Ad5-wt-hERα infected HAECT-1 cells. In words: ER/CK: creatine kinase expression in Ad5-wt-ER infected HAECT-1 cells. Type of test: cell-based, human. The method, then:
(§1) T-175 flasks of 100% confluent HAECT-1 cells (immortalized human aortic endothelial cells) were washed with 8 ml of HBSS (HEPES buffered saline solution) and infected for four hours with 6 ml of a 1:10 dilution of Ad5-wt-hERα virus (an adenovirus transfection vector that mediates CMV promoter driven expression of human ERα) in phenol red free Endothelial Cell Basal medium (Clonetics, San Diego Calif., Catalog # CC-3129) containing 0.25% bovine serum albumin (EBM-BSA). After four hours, cells were washed with EBM-BSA and incubated overnight in the same medium. Following overnight incubation, cells were washed with EBM-BSA and infected for 2 hours with 6 ml of a 1:10 dilution of Ad5-3×(NFκB).Luc virus (Adenovirus luciferase expression vector driven by 3 repeats of the MHC NFκb site 5′ to the thymidine kinase promoter) in EBM-BSA. After two hours, cells were washed and incubated at 34° C. for 1 hour. Cells were then washed, trypsinized, counted and resuspended in 95% FBS/5% dimethylsulfoxide at a concentration of 4×10^6 cells/ml, frozen as 1 or 5 ml aliquots in cryo-vials and stored at −150° C. Control (no ER infection) cells were processed as above without Ad5-wt-hERα virus infection.
(§2) ERα infected HAECT-1 cells or control cells were thawed, diluted 42× in warm EBM-BSA, plated into 96-well plates at 0.1 ml/well and incubated for 4 h at 34° C. Test compounds were added to the cells as 2× stocks in EBM-BSA containing 2 ng/ml IL-1β (R&D Systems) and plates were returned to the incubator (34° C.). After 15-20 h, 100 μl aliquots of media were removed from the cells and assayed for IL-6 content using a BioSource human IL-6 ELISA Kit. Cells were subsequently washed with 300 μl of Dulbecco's phosphate buffered saline and lysed in 50 μl of Cell Culture Lysis Reagent (Promega). Luciferase was determined on a Wallac Victor^2 Luminometer (Gaithersburg, Md.) using 10 μl of lysate and mixing with 100 μl of Promega Luciferase Assay reagent. Creatine kinase was determined from the rate of increase in A340 following addition of 100 μl of CK assay reagent (Sigma, cat. No 47-10) to the remainder of the cell lysate.
(§3) For IC50 and EC50 calculations, mean IL-6, luciferase or CK values versus log10 of the compound concentration were fitted to a four parameter logistic equation. The IC50/EC50 value, ‘Hill slope’, upper and lower limits of the curve were iteratively estimated.

In test [2] the test system is MHC invariant chain mRNA. In words: NF-κB target gene expression in liver of mice fed a high fat diet: MHC. Type of test: in vivo, C57BL/6 mice. Conditions: 10 mg/kg. The procedure:
(§4) Ovariectomized C57BL/6 mice (16-20 g) (Taconic) were separated into groups of 8. After 5-7 days of recuperation, the mice were fed a chow diet or an atherogenic diet (15.75% fat, 1.25% cholesterol and 0.5% sodium cholate) (Purina diet #21539). EE or test compound was administered once daily by gavage in a methylcellulose/tween vehicle (0.1 ml per mouse) for 5 weeks. At the end of the experimental period, the liver was collected and uterine wet weight was recorded.
(§5) Liver total RNA was prepared by using Trizol reagent (BRL). Estrogen and compound regulation of NF-κB target genes were verified by real time RT-PCR using an ABI PRISM 7700 Sequence Detection System according to the manufacturer's protocol (Applied Biosystems). The data was analyzed using the Sequence Detector v1.7 software (Applied Biosystems) and normalized to GAPDH using the Applied Biosystems primer set.
(§6) To determine the ability of estrogens to regulate the development of diet-induced inflammation in the liver, gene expression changes resulting from the atherogenic diet were monitored. Ovariectomized C57BL/6 mice were fed either a chow or atherogenic diet and treated daily with EE (0.01 mg/kg) or test compound (Table 2).

The subject of test [3] is VCAM-1 mRNA. As to the kind of experiment: NF-κB target gene expression in liver of mice fed a high fat diet: VCAM-1. Type of test: in vivo, C57BL/6 mice. Particulars: 10 mg/kg. The method, then:
as §4, §5, §6

Test [4] has as its system RANTES mRNA. As to the kind of experiment: NF-κB target gene expression in liver of mice fed a high fat diet: RANTES. It is filed as in vivo, C57BL/6 mice. Particulars: 10 mg/kg. The method, then:
as §4, §5, §6

Test [5] deals with IL-6 expression in Ad5-wt-hERα infected HAECT-1 cells. In words: ER/IL-6: IL-6 expression (ELISA) in Ad5-wt-ER infected HAECT-1 cells. It is filed as cell-based, human. The method, then:
as §1, §2, §3

Test [6] relates to NF-κB luciferase reporter in Ad5-wt-hERα infected HAECT-1 cells. As to the kind of experiment: ER/NF-κB-luc: IL-1β induced NF-κB luciferase reporter in Ad5-wt-ER infected HAECT-1 cells. Conditions: Homo sapiens. It is filed as cell-based. The procedure:
as §1, §2, §3
(A reporter such as luciferase makes a cellular process visible.)

The subject of test [7] is TNF-α mRNA. In words: NF-κB target gene expression in liver of mice fed a high fat diet: TNFa. Type of test: in vivo, C57BL/6 mice. Conditions: 10 mg/kg. The procedure: as §4, §5, §6
[8] abbreviates: once daily by gavage, 5 weeks, ovariectomized mice on atherogenic diet, liver RT-PCR.

Turning to `O=C(c1cccc(O)c1)c1nn(C2CCCC2)c2ccccc12` [Example 4, (1-cyclopentyl-1H-indazol-3-yl)(3-hydroxyphenyl)methanone], in test [1] (Homo sapiens, HAECT1, read-out: ER/CK EC50 (nM)), the EC50 turned out to be 1330 nM. Besides, in test [1] (efficacy relative to the maximal stimulation observed with E2), the “ER/CK % Eff*” value came to 57%. For the same compound, the MHC % inhib in test [2] (setting [8]) is on record as 60%. Besides, in test [2] (value in parentheses), the “MHC (eff %)” value came to 138%. Also, the VCAM-1 % inhib in test [3] (setting [8]) was found to be 59%. For the same compound, the “VCAM-1 (eff %)” value in test [3] (value in parentheses) amounted to 100%. Also, in test [4] (setting [8]), the RANTES % inhib was 67%. Besides, in test [4] (value in parentheses), the “RANTES (eff %)” value amounted to 151%. The IC50 in test [5] (Homo sapiens, HAECT1, Ad5-wt-ER infected HAECT-1 cells, IL-1β) turned out to be 0.066 µM; in test [6] (HAECT1, Ad5-wt-ER infected HAECT-1 cells, IL-1β, read-out: ER/NF-KB-luc IC50) it was 0.17 µM. In addition, the “ER/IL-6 % Eff” value in test [5] (efficacy relative to the maximal inhibition observed with E2) is on record as 109%. Moreover, in test [6] (HAECT1, efficacy relative to the maximal inhibition observed with E2, read-out: ER/NF-KB-luc % Eff*), the Emax was 77%. This compound registered a TNFa % inhib in test [7] (setting [8]) of 45%. Also, the “TNFa (eff %)” value in test [7] (value in parentheses) came out at 100%.
